# Measurements published in ChEMBL document CHEMBL1201862, “PubChem BioAssay data set” (2004).
# Active and inactive are the calls of the source.
# What was measured:
# [1] = target: Sphingosine 1-phosphate receptor 2 (Homo sapiens, UniProt O95136); assay: Dose Response Cell Based Assay for Agonists of the S1P2 Receptor. [Related pubchem assays: 729, 736, 843 ]; format: functional
# Steroidogenic factor 1 = Steroidogenic factor 1 (Homo sapiens, UniProt Q13285); assay: Counterscreen for inverse agonists of the liver receptor homolog-1 (LRH-1; NR5A2): Luminescence-based cell-based high throughput dose response assay to identify inverse agonists of the Steroidogenic Factor 1 Nuclear Receptor (SF1; NR5A1).; format: functional
# [2] = target: Mitogen-activated protein kinase 10 (Homo sapiens, UniProt P53779); assay: Dose response biochemical screening assay for inhibitors of c-Jun N-Terminal Kinase 3 (JNK3). [Related pubchem assays: 746 ]
# [3] = nonselective StAR promoter luciferase inhibitors – cell-based, luminescence, luciferase reporter, counter-screen for LRH-1 inverse agonist project, dose response (AID 651969); format: functional
# [4] = target: Nuclear receptor subfamily 5 group A member 2 (Homo sapiens, UniProt O00482); format: functional, cell-based;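 also: HEK293T cells transfected with LRH-1 and a StAR promoter luciferase reporter; potency for inhibitors that lower LRH-1 driven reporter light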
# Bcl-2-related protein A1 [5] = target: T1, Bcl-2-related protein A1 (Mus musculus, UniProt Q07440); assay: Bfl-1 binding inhibitors, SAR follow-up, biochemical, fluorescence polarization (AID 1070)
# T1 sequence (Q07440 whole entry): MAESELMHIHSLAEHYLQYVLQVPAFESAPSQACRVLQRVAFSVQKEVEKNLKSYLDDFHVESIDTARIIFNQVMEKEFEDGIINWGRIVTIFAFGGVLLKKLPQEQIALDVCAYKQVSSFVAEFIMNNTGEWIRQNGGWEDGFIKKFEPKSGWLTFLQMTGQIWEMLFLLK
# Bcl-2-related protein A1 [6] = target: T1, Bcl-2-related protein A1; assay: small-molecule antagonists of Bfl-1/BH3 interaction – biochemical, TR-FRET, mouse Bfl-1, confirmation (AID 621);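 also: TR-FRET binding of GST-Bfl-1 to FITC-labelled Bid peptide via terbium antibody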
# [7] = target: Glyceraldehyde-3-phosphate dehydrogenase (Homo sapiens, UniProt P04406)
# [8] = target: T2, Sentrin-specific protease 6 (Homo sapiens, UniProt Q9GZR1); format: functional;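 also: Luminescence-based dose-response confirmatory assay of SENP6 inhibition, following up an ultra-high-throughput screen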
# T2 sequence (Q9GZR1 whole entry): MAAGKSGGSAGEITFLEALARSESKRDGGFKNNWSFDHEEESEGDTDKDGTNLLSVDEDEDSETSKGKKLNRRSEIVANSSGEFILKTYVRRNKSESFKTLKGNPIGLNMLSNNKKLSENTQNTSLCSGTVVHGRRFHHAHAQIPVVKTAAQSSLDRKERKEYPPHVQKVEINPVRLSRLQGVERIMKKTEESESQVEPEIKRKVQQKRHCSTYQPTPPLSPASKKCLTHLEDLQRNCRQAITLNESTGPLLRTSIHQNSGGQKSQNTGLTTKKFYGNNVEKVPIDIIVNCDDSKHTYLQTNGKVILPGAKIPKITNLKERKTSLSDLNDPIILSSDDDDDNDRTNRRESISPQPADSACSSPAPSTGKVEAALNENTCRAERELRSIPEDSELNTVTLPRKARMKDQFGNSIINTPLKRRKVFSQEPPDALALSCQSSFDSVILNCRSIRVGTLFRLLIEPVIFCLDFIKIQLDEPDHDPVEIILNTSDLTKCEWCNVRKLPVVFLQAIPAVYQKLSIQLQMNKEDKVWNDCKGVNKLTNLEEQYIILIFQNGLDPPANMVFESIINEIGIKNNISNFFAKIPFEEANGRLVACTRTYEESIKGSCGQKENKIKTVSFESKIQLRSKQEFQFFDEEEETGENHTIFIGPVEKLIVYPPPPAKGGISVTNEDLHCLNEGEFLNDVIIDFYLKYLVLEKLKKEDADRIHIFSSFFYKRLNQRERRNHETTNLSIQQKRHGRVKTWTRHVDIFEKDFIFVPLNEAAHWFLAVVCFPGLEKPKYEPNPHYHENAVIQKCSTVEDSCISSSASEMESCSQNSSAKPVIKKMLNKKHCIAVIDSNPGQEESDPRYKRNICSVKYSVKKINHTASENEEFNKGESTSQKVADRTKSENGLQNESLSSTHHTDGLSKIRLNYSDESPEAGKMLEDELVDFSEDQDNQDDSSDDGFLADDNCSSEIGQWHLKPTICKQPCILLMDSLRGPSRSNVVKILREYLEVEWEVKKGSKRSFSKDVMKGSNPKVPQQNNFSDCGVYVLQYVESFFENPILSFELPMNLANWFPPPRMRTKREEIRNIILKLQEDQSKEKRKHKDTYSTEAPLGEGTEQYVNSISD
# [9] = target: T3, Sentrin-specific protease 7 (Homo sapiens, UniProt Q9BQF6); format: functional;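 also: Luminescence-based dose-response confirmation of ultra-high-throughput screening hits, measuring inhibition of SENP7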
# T3 sequence (Q9BQF6 whole entry): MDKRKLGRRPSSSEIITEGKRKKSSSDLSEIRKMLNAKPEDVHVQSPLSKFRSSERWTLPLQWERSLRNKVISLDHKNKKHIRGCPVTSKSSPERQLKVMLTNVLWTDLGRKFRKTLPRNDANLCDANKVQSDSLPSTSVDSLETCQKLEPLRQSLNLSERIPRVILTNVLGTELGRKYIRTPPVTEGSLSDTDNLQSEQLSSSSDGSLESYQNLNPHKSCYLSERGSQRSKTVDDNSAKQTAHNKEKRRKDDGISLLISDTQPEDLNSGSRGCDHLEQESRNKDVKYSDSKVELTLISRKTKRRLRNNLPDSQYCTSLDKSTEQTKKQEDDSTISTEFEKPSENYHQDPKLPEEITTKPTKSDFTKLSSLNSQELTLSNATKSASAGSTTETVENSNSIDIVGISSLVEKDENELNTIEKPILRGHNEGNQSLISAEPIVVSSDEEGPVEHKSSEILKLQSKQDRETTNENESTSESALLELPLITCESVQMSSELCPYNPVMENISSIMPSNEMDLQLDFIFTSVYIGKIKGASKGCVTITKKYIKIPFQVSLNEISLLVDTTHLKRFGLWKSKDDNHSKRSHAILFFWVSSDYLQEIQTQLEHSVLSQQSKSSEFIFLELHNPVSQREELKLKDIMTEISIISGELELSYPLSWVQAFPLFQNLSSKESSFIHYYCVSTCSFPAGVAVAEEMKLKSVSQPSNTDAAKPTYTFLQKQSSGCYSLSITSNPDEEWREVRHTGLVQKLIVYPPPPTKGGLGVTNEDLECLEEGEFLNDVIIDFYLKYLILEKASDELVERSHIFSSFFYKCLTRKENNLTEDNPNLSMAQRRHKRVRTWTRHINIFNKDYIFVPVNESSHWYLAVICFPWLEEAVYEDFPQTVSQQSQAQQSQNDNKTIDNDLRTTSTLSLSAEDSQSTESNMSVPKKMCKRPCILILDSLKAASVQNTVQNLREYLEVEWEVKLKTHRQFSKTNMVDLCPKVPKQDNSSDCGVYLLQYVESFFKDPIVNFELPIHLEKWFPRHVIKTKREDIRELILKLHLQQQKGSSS
# [10] = target: T4, Sentrin-specific protease 8 (Homo sapiens, UniProt Q96LD8); format: functional;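 also: luminescence read-out of SENP8 inhibition, dose-response confirmation following an ultra-high-throughput screen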
# T4 sequence (Q96LD8 whole entry): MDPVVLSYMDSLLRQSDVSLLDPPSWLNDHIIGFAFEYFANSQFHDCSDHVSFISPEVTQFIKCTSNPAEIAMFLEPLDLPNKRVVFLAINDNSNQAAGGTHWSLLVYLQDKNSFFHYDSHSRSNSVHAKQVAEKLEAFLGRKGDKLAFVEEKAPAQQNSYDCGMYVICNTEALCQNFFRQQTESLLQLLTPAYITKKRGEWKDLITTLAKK
# Caspase-3 = target: T5, Caspase-3 (Homo sapiens, UniProt P42574); format: functional;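 also: Dose-response selectivity test against caspase-3 for candidate inhibitors of sentrin-specific proteases (SENPs)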
# T5 sequence (P42574 whole entry): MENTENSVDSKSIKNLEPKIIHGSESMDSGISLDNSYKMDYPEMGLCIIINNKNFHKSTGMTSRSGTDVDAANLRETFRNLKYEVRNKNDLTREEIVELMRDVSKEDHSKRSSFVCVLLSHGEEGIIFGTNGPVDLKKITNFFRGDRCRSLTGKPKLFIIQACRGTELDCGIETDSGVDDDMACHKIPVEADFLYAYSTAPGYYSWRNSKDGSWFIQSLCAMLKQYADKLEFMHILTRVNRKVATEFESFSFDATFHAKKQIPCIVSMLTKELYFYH
# [11] = target: Bifunctional protein GlmU (Mycobacterium tuberculosis, UniProt P9WMN3); assay: Inhibitors of Mycobacterial Glucosamine-1-phosphate acetyl transferase (GlmU). Secondary screen.; set-up: species or system Mycobacterium tuberculosis H37Rv
# [12] = target: T6, Calpain-2 catalytic subunit (Sus scrofa, UniProt P43367); assay: m-calpain protease blockers, concentration series – biochemical, fluorogenic peptide substrate, dose response (AID 1420); format: functional
# T6 sequence (P43367 whole entry): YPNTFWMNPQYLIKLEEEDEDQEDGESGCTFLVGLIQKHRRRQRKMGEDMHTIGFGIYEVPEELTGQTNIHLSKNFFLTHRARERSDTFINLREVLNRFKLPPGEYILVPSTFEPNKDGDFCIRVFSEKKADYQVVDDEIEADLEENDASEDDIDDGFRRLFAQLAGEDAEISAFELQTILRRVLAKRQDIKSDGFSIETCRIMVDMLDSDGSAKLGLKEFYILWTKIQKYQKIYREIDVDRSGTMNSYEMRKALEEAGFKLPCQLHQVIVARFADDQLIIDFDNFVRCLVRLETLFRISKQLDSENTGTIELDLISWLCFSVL
# Glyceraldehyde-3-phosphate dehydrogenase, sequence (P04406 whole entry): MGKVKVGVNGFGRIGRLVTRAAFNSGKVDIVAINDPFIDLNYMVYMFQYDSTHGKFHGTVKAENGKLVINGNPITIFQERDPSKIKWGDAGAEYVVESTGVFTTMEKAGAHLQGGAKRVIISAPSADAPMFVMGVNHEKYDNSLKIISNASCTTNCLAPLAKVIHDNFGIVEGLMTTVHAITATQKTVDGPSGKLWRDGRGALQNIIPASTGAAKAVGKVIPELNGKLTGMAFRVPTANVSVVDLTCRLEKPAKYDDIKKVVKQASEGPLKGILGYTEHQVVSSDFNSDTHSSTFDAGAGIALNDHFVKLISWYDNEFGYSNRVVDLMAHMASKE
# Sphingosine 1-phosphate receptor 2, sequence (O95136 whole entry): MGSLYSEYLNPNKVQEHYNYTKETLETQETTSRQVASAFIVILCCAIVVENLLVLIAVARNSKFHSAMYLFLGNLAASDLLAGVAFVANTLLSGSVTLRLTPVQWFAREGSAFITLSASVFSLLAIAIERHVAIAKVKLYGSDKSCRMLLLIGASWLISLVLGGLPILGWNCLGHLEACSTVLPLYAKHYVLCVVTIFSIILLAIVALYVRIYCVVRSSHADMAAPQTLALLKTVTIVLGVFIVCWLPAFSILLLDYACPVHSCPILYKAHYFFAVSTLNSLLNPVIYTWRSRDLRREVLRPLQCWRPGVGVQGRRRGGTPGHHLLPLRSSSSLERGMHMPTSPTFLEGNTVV
# Mitogen-activated protein kinase 10, sequence (P53779 whole entry): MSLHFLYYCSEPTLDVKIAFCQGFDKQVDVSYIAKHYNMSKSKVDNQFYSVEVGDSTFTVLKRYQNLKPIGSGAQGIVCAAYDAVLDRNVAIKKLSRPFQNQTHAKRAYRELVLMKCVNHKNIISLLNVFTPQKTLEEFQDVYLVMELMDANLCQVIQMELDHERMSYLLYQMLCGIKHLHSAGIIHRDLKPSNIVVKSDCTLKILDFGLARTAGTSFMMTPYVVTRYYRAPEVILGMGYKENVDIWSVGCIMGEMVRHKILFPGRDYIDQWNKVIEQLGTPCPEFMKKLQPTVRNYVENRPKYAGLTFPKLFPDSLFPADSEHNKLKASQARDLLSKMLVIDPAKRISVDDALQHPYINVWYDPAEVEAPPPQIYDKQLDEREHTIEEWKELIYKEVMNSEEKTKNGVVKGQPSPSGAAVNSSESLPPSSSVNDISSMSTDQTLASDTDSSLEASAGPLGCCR
# Bifunctional protein GlmU, sequence (P9WMN3 whole entry): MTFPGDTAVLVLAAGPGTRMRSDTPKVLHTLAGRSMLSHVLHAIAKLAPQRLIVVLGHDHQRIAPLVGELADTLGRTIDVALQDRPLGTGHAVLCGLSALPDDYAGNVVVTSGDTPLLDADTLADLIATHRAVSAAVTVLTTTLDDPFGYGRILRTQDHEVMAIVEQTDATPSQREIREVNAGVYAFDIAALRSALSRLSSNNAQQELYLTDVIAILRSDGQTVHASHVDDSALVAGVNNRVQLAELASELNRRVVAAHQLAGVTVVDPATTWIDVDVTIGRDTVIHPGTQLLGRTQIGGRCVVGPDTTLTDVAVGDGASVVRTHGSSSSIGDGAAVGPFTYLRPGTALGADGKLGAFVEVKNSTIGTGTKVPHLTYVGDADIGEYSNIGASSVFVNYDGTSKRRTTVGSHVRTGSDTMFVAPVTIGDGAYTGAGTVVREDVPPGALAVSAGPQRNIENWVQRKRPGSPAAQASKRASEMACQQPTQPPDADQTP
# Steroidogenic factor 1, sequence (Q13285 whole entry): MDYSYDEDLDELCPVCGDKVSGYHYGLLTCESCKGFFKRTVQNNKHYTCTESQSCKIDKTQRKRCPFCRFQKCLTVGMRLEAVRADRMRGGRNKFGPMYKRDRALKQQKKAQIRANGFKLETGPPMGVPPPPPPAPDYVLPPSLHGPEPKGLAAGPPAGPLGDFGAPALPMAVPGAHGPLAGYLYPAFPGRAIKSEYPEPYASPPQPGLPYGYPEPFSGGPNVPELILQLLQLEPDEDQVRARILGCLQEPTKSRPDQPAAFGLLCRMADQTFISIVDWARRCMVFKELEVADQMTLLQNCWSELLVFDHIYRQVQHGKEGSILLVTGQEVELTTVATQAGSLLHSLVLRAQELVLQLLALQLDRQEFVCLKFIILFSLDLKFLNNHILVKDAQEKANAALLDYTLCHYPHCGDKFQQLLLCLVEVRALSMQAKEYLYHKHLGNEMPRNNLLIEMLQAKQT
# Nuclear receptor subfamily 5 group A member 2, sequence (O00482 whole entry): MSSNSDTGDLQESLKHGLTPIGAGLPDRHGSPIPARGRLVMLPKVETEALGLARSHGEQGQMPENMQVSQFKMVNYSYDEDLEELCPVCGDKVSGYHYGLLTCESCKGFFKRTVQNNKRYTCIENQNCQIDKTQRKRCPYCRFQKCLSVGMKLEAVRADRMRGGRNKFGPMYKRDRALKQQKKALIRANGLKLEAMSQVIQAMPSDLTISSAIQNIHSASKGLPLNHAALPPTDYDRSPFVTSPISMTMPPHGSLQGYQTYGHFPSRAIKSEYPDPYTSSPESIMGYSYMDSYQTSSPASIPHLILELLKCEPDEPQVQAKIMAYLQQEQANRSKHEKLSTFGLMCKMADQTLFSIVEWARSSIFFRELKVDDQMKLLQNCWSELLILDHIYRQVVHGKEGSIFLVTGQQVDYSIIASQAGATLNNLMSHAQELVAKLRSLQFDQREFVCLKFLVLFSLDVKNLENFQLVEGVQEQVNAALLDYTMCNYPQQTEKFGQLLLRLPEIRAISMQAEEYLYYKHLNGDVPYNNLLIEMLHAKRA
compound,measurement,setting,value
COc1cc2c(cc1OC)C1=C(C#N)CC/C(=N\C(=O)c3ccc(Cl)cc3)N1CC2,EC50,[1],1.61 µM (active)
CCn1c(SCC(=O)Nc2ccc(Cl)cc2)nnc1C1CC1,IC50,Steroidogenic factor 1,6.13 µM (active)
same,IC50,[2],> 93.1 µM (not active)
same,IC50,[3],35.9 µM (inactive)
same,IC50,[4],35.9 µM (inactive)
CN1CCN(C2=C(Cl)C(=O)N(c3cccc([N+](=O)[O-])c3)C2=O)CC1,IC50,Bcl-2-related protein A1 [5],6.79 µM (active)
same,IC50,Bcl-2-related protein A1 [6],3.94 µM (active)
same,IC50,[7],> 100 µM (not active)
C/C(=N\Cc1ccco1)c1c(C)nn(-c2nc3ccccc3s2)c1O,IC50,[8],9.47 µM (active)
same,IC50,[9],3.48 µM (active)
same,IC50,[10],11.5 µM (active)
same,IC50,[2],> 93.1 µM (not active)
same,IC50,Caspase-3,3.72 µM (active)
Cc1cccc(N2C(=O)C(Cl)=C(N3CCN(CCOCCO)CC3)C2=O)c1,IC50,Bcl-2-related protein A1 [5],4.46 µM (active)
same,IC50,Bcl-2-related protein A1 [6],6.43 µM (active)
same,IC50,[7],> 100 µM (not active)
C=CCn1c(N)cc(=O)nc1SCC(=O)Nc1ccccc1,EC50,[1],> 50 µM (not active)
O=C(O)c1cc(C(=O)O)cc(-c2ccc(/C=c3/sc4nc5ccccc5n4c3=O)o2)c1,IC50,[11],34.1 µM (active)
same,IC50,[12],22 µM (not active)
